Assay results published in US20240308995A1, “O-GLYCOPROTEIN-2-ACETAMIDO-2-DEOXY-3-D-GLUCOPYRANOSIDASE INHIBITORS” (BIOGEN MA INC., priority 2018, published 2024).
Counter-ions that a name gives are not always drawn.

What was measured:
[1] = target: OGA (S400 O-GLCNAC), HEK-293T cells transfected with Tau-V5 (Homo sapiens (Human), UniProt O60502); test: Cellular OGA-Tau MSD Assay; format: cell-based
Method: HEK-293T cells were transfected with […] and Tau-V5 plasmids using Lipofectamine and grown overnight. Next day, the cells were collected and re-plated at 1×10^5 cells per well in 96 well plates. Cells were incubated for 4 hr at 37° C., before compounds were added at 1 uM, with 3-fold dilutions in a 10-point titration. Cell plates were incubated with compounds overnight at 37° C. The next day media was removed from wells by gentle aspiration and 120 ul of 1× Cell Lysis buffer mixed with protease and phosphatase cocktail added to each well. A freeze thaw was performed at -80° C., then mixed before transferring 50 ul to MSD plates coated with V5-tag antibody to capture Tau. MSD Plates were incubated overnight at 4° C., on a plate shaker. The following day, plates were washed and incubated with Tau-[…]-GlcNAc antibody for 2 hr and then developed with rabbit Sulfo-tag antibody. Final read out was carried out on an MSD 600 reader. The data was analyzed using Graph Pad or Genedata, the data was normalized and % activity versus log of compound concentration was plotted. The IC50 values were obtained from a 4 parameter fit.

[2] = target: Recombinant full length human OGA enzyme (Homo sapiens (Human), UniProt O60502); test: OGA Enzyme Inhibition Biochemical Assay; settings: 1 nM OGA, 100 μM 4-MUGlcNAc, pH 6.4
Chain of Recombinant full length human OGA enzyme (O60502 whole entry): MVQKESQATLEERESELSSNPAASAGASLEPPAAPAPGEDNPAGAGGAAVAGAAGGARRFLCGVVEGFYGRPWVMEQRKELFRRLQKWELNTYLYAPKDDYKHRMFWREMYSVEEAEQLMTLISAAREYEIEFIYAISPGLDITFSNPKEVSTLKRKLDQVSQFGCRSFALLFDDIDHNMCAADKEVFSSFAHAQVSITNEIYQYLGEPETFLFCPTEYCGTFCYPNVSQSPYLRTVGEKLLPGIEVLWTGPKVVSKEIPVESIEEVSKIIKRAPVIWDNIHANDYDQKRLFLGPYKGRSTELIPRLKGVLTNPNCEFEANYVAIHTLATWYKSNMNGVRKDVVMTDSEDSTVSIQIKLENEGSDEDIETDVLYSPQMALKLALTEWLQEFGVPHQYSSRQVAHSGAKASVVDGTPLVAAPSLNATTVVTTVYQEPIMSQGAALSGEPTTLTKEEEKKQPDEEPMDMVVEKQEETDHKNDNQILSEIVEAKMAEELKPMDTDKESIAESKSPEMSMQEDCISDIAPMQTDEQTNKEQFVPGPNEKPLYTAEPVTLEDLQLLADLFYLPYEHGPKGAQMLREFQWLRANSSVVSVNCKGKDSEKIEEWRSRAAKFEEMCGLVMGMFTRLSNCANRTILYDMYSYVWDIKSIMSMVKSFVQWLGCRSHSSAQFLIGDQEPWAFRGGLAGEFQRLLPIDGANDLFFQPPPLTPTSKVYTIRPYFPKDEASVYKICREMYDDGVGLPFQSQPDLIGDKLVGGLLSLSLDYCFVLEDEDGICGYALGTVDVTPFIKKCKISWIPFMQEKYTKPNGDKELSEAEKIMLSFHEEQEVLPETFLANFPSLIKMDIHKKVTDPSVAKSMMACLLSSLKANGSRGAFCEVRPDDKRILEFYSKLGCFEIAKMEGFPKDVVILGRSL
Method: Recombinant full length human OGA enzyme was purchased from Origene. 4-MUGlcNAc substrate was purchased from Sigma. All other reagents were purchased from Sigma or Fisher. Assay buffer consists of the McIlvaine buffer system, pH 6.4 (0.2M Na2HPO4 mixed with 0.1M citric acid) and 0.01% BSA. […] Reactions were incubated for 90 minutes at room temperature and quenched with 40 μl of 3M glycine, pH 10 and read on a Perkin Elmer Envision plate reader (Ex: 355 nm/Em: 460 nm). Compounds were tested with a 10-point dose-response starting from 20 μM with a 4-fold dilution. Data was fit using GraphPad Prism using a 4-parameter fit with variable slope.

[3] = HEK-293T cells, Tau-S400-GlcNAc MSD readout

Chain of OGA (S400 O-GLCNAC), HEK-293T cells transfected with Tau-V5 (O60502 whole entry): as above

`CC(=O)Nc1nc(F)c(CN2C[C@H](Oc3cc(OC4CN(C)C4)ncn3)C[C@@H]2C)s1` [Example 1-141, N-(4-fluoro-5-(((2S,4R)-2-methyl-4-((6-((1-methylazetidin-3-yl)oxy)pyrimidin-4-yl)oxy)pyrrolidin-1-yl)methyl)thiazol-2-yl)acetamide] showed an IC50 [1, 3] of 7 nM and an IC50 [2] of 1 nM.

Work on `CC(=O)Nc1nc(F)c(CN2C[C@H](Oc3cc(N4CC(F)(F)C4)ncn3)C[C@@H]2C)s1` [Example 1-26, N-(5-(((2S,4R)-4-((6-(3,3-difluoroazetidin-1-yl)pyrimidin-4-yl)oxy)-2-methylpyrrolidin-1-yl)methyl)-4-fluorothiazol-2-yl)acetamide] yielded an IC50 [1, 3] of 1 nM and an IC50 [2] of under 1 nM.

For `[2H][C@]1(Oc2cc(OC)ncn2)C[C@H](C)N(Cc2sc(NC(C)=O)nc2F)C1` [Example 1-166, N-(4-fluoro-5-(((2S,4S)-4-((6-methoxypyrimidin-4-yl)oxy)-2-methylpyrrolidin-1-yl-4-d)methyl)thiazol-2-yl)acetamide], the IC50 [1, 3] was 11 nM and the IC50 [2] was 13 nM.

Compound `COc1cc(O[C@@H]2C[C@H](C)N(Cc3sc(NC(C)=O)nc3F)C2)ncn1` [Example 1-22, N-(4-Fluoro-5-(((2S,4R)-4-((6-methoxypyrimidin-4-yl)oxy)-2-methylpyrrolidin-1-yl)methyl)thiazol-2-yl)acetamide] has an IC50 [1, 3] of 2 nM and an IC50 [2] of under 1 nM.

For `[2H]C([2H])([2H])Oc1cc(O[C@@H]2C[C@H](C)N(Cc3sc(NC(C)=O)nc3F)C2)ncn1` (single isomer, unassigned) [Example 1-155], the IC50 [1, 3] was 2 nM and the IC50 [2] was under 1 nM.

For `CC(=O)Nc1ncc(CN2C[C@H](Oc3cc(C)nc(C)c3)CC[C@@H]2C)s1` [Example 1-67, N-(5-(((2S,5R)-5-((2,6-dimethylpyridin-4-yl)oxy)-2-methylpiperidin-1-yl)methyl)thiazol-2-yl)acetamide], the IC50 [1, 3] was 3 nM and the IC50 [2] was under 1 nM.

In the case of `COc1cc(O[C@@H]2C[C@@H](C)N(Cc3sc(NC(C)=O)nc3F)C2)ncn1` [Example 1-29, N-(4-fluoro-5-(((2R,4R)-4-((6-methoxypyrimidin-4-yl)oxy)-2-methylpyrrolidin-1-yl)methyl)thiazol-2-yl)acetamide], the IC50 [1, 3] is reported as 97 nM and the IC50 [2] is reported as 58 nM.

With `CC(=O)Nc1nc(F)c(CN2C[C@H](Oc3ccc(F)nn3)C[C@@H]2C)s1` [Example 1-111, N-(4-fluoro-5-(((2S,4R)-4-((6-fluoropyridazin-3-yl)oxy)-2-methylpyrrolidin-1-yl)methyl)thiazol-2-yl)acetamide] the IC50 [1, 3] was 1 nM and the IC50 [2] was under 1 nM.

Work on `CC(=O)Nc1nc(F)c(CN2C[C@H](Oc3cc(N4CCC4)ncn3)C[C@@H]2C)s1` [Example 1-24, N-(5-(((2S,4R)-4-((6-(azetidin-1-yl)pyrimidin-4-yl)oxy)-2-methylpyrrolidin-1-yl)methyl)-4-fluorothiazol-2-yl)acetamide] yielded an IC50 [1, 3] of 1 nM and an IC50 [2] of under 1 nM.

Work on `CC(=O)Nc1nc(F)c(CN2C[C@H](Oc3cc(N4CC(F)C4)ncn3)C[C@@H]2C)s1` [Example 1-25, N-(4-fluoro-5-(((2S,4R)-4-((6-(3-fluoroazetidin-1-yl)pyrimidin-4-yl)oxy)-2-methylpyrrolidin-1-yl)methyl)thiazol-2-yl)acetamide] yielded an IC50 [1, 3] of under 1 nM and an IC50 [2] of under 1 nM.

Compound `COc1ccc(O[C@@H]2C[C@H](C)N(Cc3sc(NC(C)=O)nc3F)C2)nn1` [Example 1-84, N-(4-fluoro-5-(((2S,4R)-4-((6-methoxypyridazin-3-yl)oxy)-2-methylpyrrolidin-1-yl)methyl)thiazol-2-yl)acetamide] has an IC50 [1, 3] of 1 nM and an IC50 [2] of under 1 nM.

For `COc1cncnc1O[C@@H]1C[C@H](C)N(Cc2cnc(NC(C)=O)s2)C1` [Example 1-74], the IC50 [1, 3] was 13 nM and the IC50 [2] was 6.4 nM.

With `CC(=O)Nc1ncc(CN2C[C@H](Oc3cc(OC4CCC4)ncn3)C[C@@H]2C)s1` [Example 1-121, N-(5-(((2S,4R)-4-((6-cyclobutoxypyrimidin-4-yl)oxy)-2-methylpyrrolidin-1-yl)methyl)thiazol-2-yl)acetamide] the IC50 [1, 3] was 3 nM and the IC50 [2] was under 1 nM.

Work on `[2H]C([2H])(c1sc(NC(C)=O)nc1F)N1C[C@H](Oc2cc(OC)ncn2)C[C@@H]1C` (single isomer, unassigned) [Example 1-161] yielded an IC50 [1, 3] of 4 nM and an IC50 [2] of under 1 nM.

Compound `COc1cc(O[C@@H]2CCN(Cc3cnc(NC(C)=O)s3)C2)ncn1` [Example 1-37, (R)—N-(5-((3-((6-methoxypyrimidin-4-yl)oxy)pyrrolidin-1-yl)methyl)thiazol-2-yl)acetamide] has an IC50 [1, 3] of 27 nM and an IC50 [2] of 36 nM.

For `COc1cc(O[C@H]2C[C@@H](C)N(Cc3sc(NC(C)=O)nc3F)C2)ncn1` [Example 1-31, N-(4-fluoro-5-(((2R,4S)-4-((6-methoxypyrimidin-4-yl)oxy)-2-methylpyrrolidin-1-yl)methyl)thiazol-2-yl)acetamide], the IC50 [1, 3] was over 1000 nM and the IC50 [2] was 2900 nM.

`COc1cc(O[C@@H]2C[C@H](C)N(Cc3sc(NC(C)=O)nc3F)C2)ccn1` [Example 1-100, N-(4-fluoro-5-(((2S,4R)-4-((2-methoxypyridin-4-yl)oxy)-2-methylpyrrolidin-1-yl)methyl)thiazol-2-yl)acetamide] gave an IC50 [1, 3] of 1 nM and an IC50 [2] of under 1 nM.

In the case of `[2H]C(c1sc(NC(C)=O)nc1F)N1C[C@H](Oc2cc(OC)ncn2)C[C@@H]1C` (single isomer, unassigned) [Example 1-159], the IC50 [1, 3] is reported as 1 nM and the IC50 [2] is reported as under 1 nM.

For `CC(=O)Nc1ncc(CN2C[C@@H](Oc3ccc(F)cn3)CC[C@@H]2C)s1` [Example 1-5, N-(5-(((2S,5S)-5-((5-fluoropyridin-2-yl)oxy)-2-methylpiperidin-1-yl)methyl)thiazol-2-yl)acetamide], the IC50 [1, 3] was 4 nM and the IC50 [2] was 1.6 nM.

Work on `COc1ncnc(O[C@@H]2C[C@H](C)N(Cc3cnc(NC(C)=O)s3)C2)c1F` [Example 1-19, N-(5-(((2S,4R)-4-((5-fluoro-6-methoxypyrimidin-4-yl)oxy)-2-methylpyrrolidin-1-yl)methyl)thiazol-2-yl)acetamide] yielded an IC50 ([1]; repeated assay, value marked with asterisk (*)) of 6 nM and an IC50 [2] of 1.2 nM.

`[2H]C([2H])([2H])C(=O)Nc1nc(F)c(CN2C[C@H](Oc3cc(OC)ncn3)C[C@@H]2C)s1` (single isomer, unassigned) [Example 1-157, trifluoroacetate salt] showed an IC50 [1, 3] of 3 nM and an IC50 [2] of under 1 nM.

With `CC(=O)Nc1ncc(CN2C[C@@H](Oc3cc(C)nc(C)c3)CC[C@@H]2C)s1` [Example 1-66, N-(5-(((2S,5S)-5-((2,6-dimethylpyridin-4-yl)oxy)-2-methylpiperidin-1-yl)methyl)thiazol-2-yl)acetamide] the IC50 [1, 3] was 4 nM and the IC50 [2] was under 1 nM.
